Assays:
Experiment in all cases: Greenhouse herbicidal activity assay, post-emergence
Type in all cases: in vivo
Cyperus iria = settings: Post-emergence test, rate 150 g a.i./hm^2, grade by fresh weight inhibition rate; for pest or weed control at 150 g/ha: Cyperus iria, read-out: Control efficacy grade, Cyperus iria
Source text: (§1) Post-emergence: Seeds of gramineous weeds (Echinochloa crusgalli, Echinochloa crusgalli var. zelayensis, Echinochloa phyllopogon, Eleusine indica, Digitaria sanguinalis, Leptochloa chinensis, Setaria viridis, Alopecurus japonicus Steud, Beckmannia syzigachne, Polypogon fugax, Alopecurus aequalis, Lolium multiflorum, Poa annua, Aegilops tataschii, Avena fatua, Alopecurus myosuroides, Bromus japonicus), broadleaf weeds (Eclipta prostrata, Amaranthus retroflexus, Rorippa indica, Myosoton aquaticum, Veronica didyma, Galium aparine, Solanum nigrum, Xanthium sibiricum, Conyza canadensis, Sesbania cannabina, Sagittaria trifolia), and Cyperus iria (Cyperus iria, Scirpus juncoides, Cyperus difformis, etc.) were sown in plastic pots (7 cm diameter) with nutrient soil and bottom holes. Crop seeds (including Oryza sativa subsp. indica, Oryza sativa subsp. japonica, Oryza sativa L. var. Glutinosa matsum, Triticum aestivum, Zea mays, Sorghum bicolor, Setaria italica, Glycine max, Gossypium hirsutum, Brassica napus, Arachis hypogaea) were sown in plastic pots (10 cm diameter) with nutrient soil and bottom holes. After sowing, the pots were placed in the growth chamber until the plants reached the 3-6 leaf stage for foliar spraying. Post-treatment, the materials were air-dried naturally and returned to the growth chamber. Results were assessed 14-21 days later.
(§2) • A: Fresh weight inhibition rate≥80% to 100%; • B: Fresh weight inhibition rate[…] to <80%; • C: Fresh weight inhibition rate≥40% to <60%; • D: Fresh weight inhibition rate≥20% to <40%; • E: Fresh weight inhibition rate<20%; • NT: Not tested.

Eclipta prostrata = settings: Post-emergence test, rate 150 g a.i./hm^2, grade by fresh weight inhibition rate; for pest or weed control at 150 g/ha: Eclipta prostrata, read-out: Control efficacy grade, Eclipta prostrata
Source text: as §1, §2

Leptochloa chinensis = settings: Post-emergence test, rate 150 g a.i./hm^2; grade by fresh weight inhibition rate
Source text: as §1, §2

| SMILES | Control efficacy grade, Cyperus iria (Cyperus iria) | Control efficacy grade, Eclipta prostrata (Eclipta prostrata) | Control efficacy grade, Leptochloa chinensis (Leptochloa chinensis) | pest or weed control at 150 g/ha (Cyperus iria) [%] | pest or weed control at 150 g/ha (Eclipta prostrata) [%] |
| --- | --- | --- | --- | --- | --- |
| CCC(C)[S+]([O-])c1c(S(C)(=O)=O)ccc(C(=O)Nc2nnc(C(C)C)o2)c1Cl (mixture of isomers) [Compound 3-517] | B (Fresh weight inhibition rate≥260% to <80%) | A (Fresh weight inhibition rate≥80% to 100%) | A (Fresh weight inhibition rate≥80% to 100%) | – | – |
| CCC(C)[S+]([O-])c1c(S(C)(=O)=O)ccc(C(=O)Nc2nonc2C)c1Cl (mixture of isomers) [Compound 4-19] | A (Fresh weight inhibition rate≥80% to 100%) | A (Fresh weight inhibition rate≥80% to 100%) | A (Fresh weight inhibition rate≥80% to 100%) | – | – |
| CCC(C)Sc1c(S(C)(=O)=O)ccc(C(=O)Nc2ncnn2C)c1Cl (racemic) [Compound 2-16] | A (Fresh weight inhibition rate≥80% to 100%) | A (Fresh weight inhibition rate≥80% to 100%) | A (Fresh weight inhibition rate≥80% to 100%) | – | – |
| C#CC[S+]([O-])c1c(S(C)(=O)=O)ccc(C(=O)Nc2nnc(C)o2)c1Cl (racemic) [Compound 3-148] | – | – | A (Fresh weight inhibition rate≥80% to 100%) | – | – |
| Cc1nnc(NC(=O)c2ccc(S(C)(=O)=O)c([S+]([O-])CC(F)(F)C(F)(F)F)c2Cl)o1 (racemic) [Compound 3-173] | – | – | A (Fresh weight inhibition rate≥80% to 100%) | – | – |
| Cc1nnc(NC(=O)c2ccc(S(C)(=O)=O)c([S+]([O-])CCC#N)c2Cl)o1 (racemic) [Compound 3-198] | A (Fresh weight inhibition rate≥80% to 100%) | A (Fresh weight inhibition rate≥80% to 100%) | A (Fresh weight inhibition rate≥80% to 100%) | – | – |
| CC(C)c1nnc(NC(=O)c2ccc(S(C)(=O)=O)c([S+]([O-])C(C)C)c2Cl)o1 (racemic) [Compound 3-505] | A (Fresh weight inhibition rate≥80% to 100%) | A (Fresh weight inhibition rate≥80% to 100%) | A (Fresh weight inhibition rate≥80% to 100%) | – | – |
| C=CC[S+]([O-])c1c(S(C)(=O)=O)ccc(C(=O)Nc2nnc(C(C)C)o2)c1Cl (racemic) [Compound 3-571] | A (Fresh weight inhibition rate≥80% to 100%) | A (Fresh weight inhibition rate≥80% to 100%) | – | – | – |
| CCc1nnc(N(C)C(=O)c2ccc(S(C)(=O)=O)c([S+]([O-])C3CC3)c2Cl)o1 (racemic) [Compound 3-813] | B (Fresh weight inhibition rate≥260% to <80%) | A (Fresh weight inhibition rate≥80% to 100%) | B (Fresh weight inhibition rate≥260% to <80%) | – | – |
| CCC(C)Sc1c(S(C)(=O)=O)ccc(C(=O)Nc2nonc2C)c1Cl (racemic) [Compound 4-16] | A (Fresh weight inhibition rate≥80% to 100%) | – | – | – | – |
| CCCS(=O)(=O)c1c(S(C)(=O)=O)ccc(C(=O)N(C)c2nnnn2C)c1Cl [Compound 1-101] | – | A (Fresh weight inhibition rate≥80% to 100%) | B (Fresh weight inhibition rate≥260% to <80%) | – | – |
| Cn1ncnc1NC(=O)c1ccc(S(C)(=O)=O)c(SC2CCCC2)c1Cl [Compound 2-42] | A (Fresh weight inhibition rate≥80% to 100%) | A (Fresh weight inhibition rate≥80% to 100%) | A (Fresh weight inhibition rate≥80% to 100%) | – | – |
| Cc1nnc(NC(=O)c2ccc(S(C)(=O)=O)c(SCc3ccccc3)c2Cl)o1 [Compound 3-67] | A (Fresh weight inhibition rate≥80% to 100%) | – | – | – | – |
| Cc1nnc(NC(=O)c2ccc(S(C)(=O)=O)c(SC3CCCCC3)c2Cl)o1 [Compound 3-92] | A (Fresh weight inhibition rate≥80% to 100%) | – | – | – | – |
| CCCCS(=O)(=O)c1c(S(C)(=O)=O)ccc(C(=O)Nc2nnco2)c1Cl [Compound 3-281] | A (Fresh weight inhibition rate≥80% to 100%) | A (Fresh weight inhibition rate≥80% to 100%) | A (Fresh weight inhibition rate≥80% to 100%) | – | – |
| CS(=O)(=O)c1ccc(C(=O)Nc2nnco2)c(Cl)c1S(=O)(=O)CCCl [Compound 3-382] | – | – | A (Fresh weight inhibition rate≥80% to 100%) | – | – |
| CCCCSc1c(S(C)(=O)=O)ccc(C(=O)Nc2nnc(CC)o2)c1Cl [Compound 3-393] | A (Fresh weight inhibition rate≥80% to 100%) | – | B (Fresh weight inhibition rate≥260% to <80%) | – | – |
| CCCCS(=O)(=O)c1c(S(C)(=O)=O)ccc(C(=O)Nc2nnc(CC)o2)c1Cl [Compound 3-397] | A (Fresh weight inhibition rate≥80% to 100%) | A (Fresh weight inhibition rate≥80% to 100%) | – | – | – |
| CCc1nnc(NC(=O)c2ccc(S(C)(=O)=O)c(S(=O)(=O)CCCl)c2Cl)o1 [Compound 3-498] | – | – | A (Fresh weight inhibition rate≥80% to 100%) | – | – |
| CCCSc1c(S(C)(=O)=O)ccc(C(=O)Nc2nnc(C(C)C)o2)c1Cl [Compound 3-499, 2-chloro-N-(5-isopropyl-1,3,4-oxadiazol-2-yl)-4-(methylsulfonyl)-3-(propylthio)benzamide] | – | – | – | 80 to 100 | – |
| CCCS(=O)(=O)c1c(S(C)(=O)=O)ccc(C(=O)Nc2nonc2C)c1Cl [Compound 4-5, 2-chloro-N-(4-methyl-1,2,5-oxadiazol-3-yl)-4-(methylsulfonyl)-3-(propylsulfonyl)benzamide] | – | – | – | 80 to 100 | 80 to 100 |
| Cc1nonc1NC(=O)c1ccc(S(C)(=O)=O)c(SC(C)C)c1Cl [Compound 4-6] | – | – | A (Fresh weight inhibition rate≥80% to 100%) | – | – |
| Cc1nonc1NC(=O)c1ccc(S(C)(=O)=O)c(SCC2CC2)c1Cl [Compound 4-32, 2-chloro-3-((cyclopropylmethyl)thio)-N-(4-meth 1-1,2,5-oxadiazol-3-yl)-4-(methylsulfonyl)benzamide] | – | – | – | 80 to 100 | – |
| Cc1nonc1NC(=O)c1ccc(S(C)(=O)=O)c(S(=O)(=O)CC2CC2)c1Cl [Compound 4-36, 2-chloro-3-((cyclopropylmethyl)sulfonyl)-N-(4-methyl-1,2,5-oxadiazol-3-yl)-4-(methylsulfonyl)benzamide] | – | – | – | 80 to 100 | – |
| CCC[S+]([O-])c1c(S(C)(=O)=O)ccc(C(=O)N(C)c2nonc2C)c1Cl (centres unmarked) [Compound 4-272, 2-chloro-N-methyl-N-(4-methyl-1,2,5-oxadiazol-3-yl)-4-(methylsulfonyl)-3-(propylsulfinyl)benzamide] | – | – | – | 80 to 100 | 80 to 100 |

Reference: patent US20250223268A1, “4-Methylsulfonylbenzamide Compound, Preparation Method, Herbicidal Composition And Use” (Jiangsu Flag Chemical Industry Co., Ltd., priority 2022, published 2025)
